Data reported in publication PMC13012276 (British journal of pharmacology, 2022).
Several values for one entry are separate records, joined by “and”; a condition that tells them apart may be missing. Equal entries are not always repeated. Where two headings read alike, the source gives them in different places. Marks after values point to notes of the source that are not given here.

How the values were obtained:
[1] = system: Nav channels; test: CBD inhibition of Nav channels; type: cell-based; settings: Table 1, from literature CBD values
[2] = system: Nav channels; settings: ref Ghovanloo, Shuart, et al. (2018), cited from earlier work
[3] = biological target: T1, human Nav1.7 channels (Homo sapiens, UniProt Q15858); test: State-dependent inhibition of sodium currents, automated patch-clamp; type: cell-based
[4] = system: TTX-resistant Nav current in rat DRG neurons; type: cell-based
[5] = biological target: T1, human Nav1.7 channels; test: Activation / peak conductance protocol, automated patch-clamp; type: cell-based
[6] = biological target: T1, human Nav1.7 channels; test: Steady-state inactivation; type: cell-based
[7] = system: voltage-gated sodium (Nav) channels in rat CA1 hippocampal neurons; settings: cited from earlier work
[8] = system: TTX-sensitive Nav channels; settings: read-out: IC50 of TTX-sensitive channels; cited from earlier work

T1 sequence (Q15858 whole entry): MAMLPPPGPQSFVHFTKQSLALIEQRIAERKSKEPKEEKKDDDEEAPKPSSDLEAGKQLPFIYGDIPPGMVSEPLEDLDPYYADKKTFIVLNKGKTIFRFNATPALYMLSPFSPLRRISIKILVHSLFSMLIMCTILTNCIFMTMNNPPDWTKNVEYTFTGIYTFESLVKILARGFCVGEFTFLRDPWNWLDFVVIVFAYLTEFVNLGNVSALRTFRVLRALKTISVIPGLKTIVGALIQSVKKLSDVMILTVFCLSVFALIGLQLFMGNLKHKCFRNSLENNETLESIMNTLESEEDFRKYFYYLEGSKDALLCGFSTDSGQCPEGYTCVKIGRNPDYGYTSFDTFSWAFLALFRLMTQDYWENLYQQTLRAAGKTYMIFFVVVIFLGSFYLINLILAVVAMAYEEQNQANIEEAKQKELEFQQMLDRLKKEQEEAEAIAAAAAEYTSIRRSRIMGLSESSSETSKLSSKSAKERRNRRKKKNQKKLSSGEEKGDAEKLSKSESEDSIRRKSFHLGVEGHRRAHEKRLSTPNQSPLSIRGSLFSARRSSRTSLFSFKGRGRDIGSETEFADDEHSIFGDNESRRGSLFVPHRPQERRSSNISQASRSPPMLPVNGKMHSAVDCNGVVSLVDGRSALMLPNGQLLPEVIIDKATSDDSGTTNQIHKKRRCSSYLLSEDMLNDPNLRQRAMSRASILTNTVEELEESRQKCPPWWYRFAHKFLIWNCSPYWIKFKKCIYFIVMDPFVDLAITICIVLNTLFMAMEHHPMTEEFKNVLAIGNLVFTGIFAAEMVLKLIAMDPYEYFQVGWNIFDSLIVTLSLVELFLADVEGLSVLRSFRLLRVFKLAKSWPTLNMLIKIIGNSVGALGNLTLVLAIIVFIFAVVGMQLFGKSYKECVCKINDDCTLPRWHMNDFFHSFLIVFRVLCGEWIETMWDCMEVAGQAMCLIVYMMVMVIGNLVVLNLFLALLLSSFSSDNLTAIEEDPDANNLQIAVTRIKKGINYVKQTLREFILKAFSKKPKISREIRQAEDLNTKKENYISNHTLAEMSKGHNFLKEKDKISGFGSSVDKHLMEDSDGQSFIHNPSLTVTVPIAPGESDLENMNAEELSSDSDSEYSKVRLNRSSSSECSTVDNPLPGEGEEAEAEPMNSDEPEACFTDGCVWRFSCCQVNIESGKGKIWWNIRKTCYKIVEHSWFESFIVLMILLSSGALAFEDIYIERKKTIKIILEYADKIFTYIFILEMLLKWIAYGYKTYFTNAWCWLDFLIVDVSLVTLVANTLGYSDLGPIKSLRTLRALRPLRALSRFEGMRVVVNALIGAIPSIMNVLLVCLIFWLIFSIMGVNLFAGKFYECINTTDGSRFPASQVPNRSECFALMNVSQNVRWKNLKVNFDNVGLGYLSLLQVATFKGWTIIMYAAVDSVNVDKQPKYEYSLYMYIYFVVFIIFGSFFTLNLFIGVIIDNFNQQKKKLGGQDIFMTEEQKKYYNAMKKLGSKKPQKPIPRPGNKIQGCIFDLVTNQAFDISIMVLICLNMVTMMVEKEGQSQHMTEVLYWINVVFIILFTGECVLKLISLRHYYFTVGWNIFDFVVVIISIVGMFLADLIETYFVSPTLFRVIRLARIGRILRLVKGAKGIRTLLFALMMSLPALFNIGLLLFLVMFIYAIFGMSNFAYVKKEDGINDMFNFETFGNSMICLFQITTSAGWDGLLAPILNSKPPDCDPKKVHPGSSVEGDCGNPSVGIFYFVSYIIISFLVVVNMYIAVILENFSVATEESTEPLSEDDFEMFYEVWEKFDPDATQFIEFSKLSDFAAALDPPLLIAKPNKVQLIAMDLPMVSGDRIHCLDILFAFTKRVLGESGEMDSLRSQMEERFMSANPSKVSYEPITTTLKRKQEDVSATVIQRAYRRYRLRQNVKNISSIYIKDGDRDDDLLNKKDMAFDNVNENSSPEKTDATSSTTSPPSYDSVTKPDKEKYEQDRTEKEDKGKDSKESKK
T1 sequence (Q07699 19-218 partner): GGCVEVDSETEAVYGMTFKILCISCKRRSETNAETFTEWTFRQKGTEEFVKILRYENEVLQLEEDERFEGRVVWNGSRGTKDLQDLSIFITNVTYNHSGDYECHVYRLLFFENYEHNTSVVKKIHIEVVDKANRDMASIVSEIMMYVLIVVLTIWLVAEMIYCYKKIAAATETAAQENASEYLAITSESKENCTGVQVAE

## C=C(C)[C@@H]1CCC(C)=C[C@H]1c1c(O)cc(CCCCC)cc1O [CBD, cannabidiol]
[1]
  Concentration/fold state dependence (ratio): 1.1
[2]; Table 1
  State dependence: ~10^a
[2]; read-out: IC50 on Nav channels, Table 1
  IC50: 1 to 12 µM
[2]
  State dependence: ~ 10 fold

## CCCCCc1cc(O)c(C/C=C(\C)CCC=C(C)C)c(O)c1 [CBG, cannabigerol]
[3]
  Concentration/fold state dependence (ratio): 2
  Fold less potent than CBD in inhibiting Nav channels: about 2 fold
  Hill slope: 1.2 ± 0.3 and 2.3 ± 0.5 and 1.6 ± 0.4
  Hill slopes (range across holding potentials): 1.2–2.3
  Ki: 2 to 20 µM
  Nav channels prevented from opening: ~ 30%
  State dependence: ~10
  State dependence (inactivated vs resting state potency): ~ 10 fold and ~ 11 fold
  average Hill-slope: ~ 2
[3]; IC50 (range across holding potentials), holding potentials −110 to −90 mV
  IC50: 4.6 to 18.8 µM
[3]; IC50, holding potential −90 mV, pulse 180 (3 min), mean ± SEM
  IC50: 4.6 ± 1.1 µM
[3]; IC50, holding potential −100 mV, pulse 180 (3 min), mean ± SEM
  IC50: 9.3 ± 1 µM
[3]; IC50, holding potential −110 mV, pulse 180 (3 min), mean ± SEM
  IC50: 18.8 ± 2.9 µM
[4]
  Inhibition of TTX-resistant current: ~ 50%
[5]
  IC50: ~3.5 µM
  Reduction in sodium current density: ~ 90%
  V1/2 of activation: −46.4 ± 5.6 mV
  Vehicle Gmax left: ~ 10%
  slope of activation: 5.2 ± 2.2
[6]
  Hyperpolarization of voltage dependence of SSI: ~ 12 mV
  Percentage shift of inactivation V1/2 relative to vehicle: about 25%
  Rate time constant of open-state inactivation vs vehicle: did not differ significantly
[6]; IC50 for V1/2 (inactivation shift), Hill fit of normalized data, estimated
  IC50: ~13.2 µM
[6]; read-out: Inhibition of current at the test pulse
  inhibition at 15 µM: ~90%
[7]
  Effect on Nav current density and action potential frequency: decreases current density

## NC1=N[C@H](O)[C@H]2[C@H]3O[C@]4(O)O[C@@H]([C@@H](O)[C@@]2(N1)[C@@H]4O)[C@]3(O)CO [TTX, tetrodotoxin]
[8]
  IC50: 0.01 to 0.03 µM
